# According to publication PMC3547856, “Naphthoquinone Derivatives Exert Their Antitrypanosomal Activity via a Multi-Target Mechanism” (PLoS Neglected Tropical Diseases, 2013):
# Values joined by “and” are separate entries in the source; they are usually repeats but may differ in a detail not shown here. Equal values may be shown once. “Also recorded” adds a separate entry of the source. Read-outs that look alike come from different tables or passages of the source.
# Legend:
# mammalian cell lines = system: mammalian cell lines; set-up: method as in PMID 18353643; conditions: ratio of ED50 values on mammalian cell lines and trypanosomes; cited from earlier work
# TbGK = TbGK (Trypanosoma brucei brucei, UniProt Q9NJP9); test: T. b. brucei glycerol kinase enzyme-coupled spectrophotometric assay; assay type: biochemical; conditions: mean of three independent experiments; 25°C
# Sequence of TbGK (Q9NJP9 whole entry): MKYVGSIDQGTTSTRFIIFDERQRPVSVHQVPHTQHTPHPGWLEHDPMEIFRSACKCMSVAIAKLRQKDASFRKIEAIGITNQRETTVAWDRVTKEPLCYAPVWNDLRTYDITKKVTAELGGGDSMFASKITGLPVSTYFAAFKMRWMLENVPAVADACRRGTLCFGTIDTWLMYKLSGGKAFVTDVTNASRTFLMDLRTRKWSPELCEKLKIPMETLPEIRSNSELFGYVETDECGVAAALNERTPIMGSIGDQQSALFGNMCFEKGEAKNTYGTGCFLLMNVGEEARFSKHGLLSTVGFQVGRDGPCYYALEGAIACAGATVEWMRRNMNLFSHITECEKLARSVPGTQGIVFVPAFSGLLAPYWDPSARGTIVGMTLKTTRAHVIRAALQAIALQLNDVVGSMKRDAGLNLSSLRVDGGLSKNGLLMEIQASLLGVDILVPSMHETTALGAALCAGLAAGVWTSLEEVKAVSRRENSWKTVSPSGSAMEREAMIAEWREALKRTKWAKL
# Method: The expression construct has been obtained by subcloning the corresponding GK gene (isolated from T. b. brucei strain Lister 427) from the formerly designed pET15-TbGK plasmid into vector pET28 to create the final expression plasmid pET28-TbGK (unpublished data). TbGK was then expressed in E. coli BL21(DE3)-CodonPlus-RIL grown in 1 liter LB medium supplemented with kanamycin (50 µg/ml) and chloramphenicol (34 µg/ml) for 16 h at 37°C. Expression was induced by adding 1 mM isopropyl β-d-thiogalactanopyranoside (IPTG), and growth was continued for another 2 h at 37°C. […] TbGK was eluted using a 10 column volumes linear imidazole-gradient using buffer A and buffer B. Eluted fractions were analyzed by SDS-PAGE. […] After overnight incubation at 16°C, the digested protein was concentrated and desalted using a Superdex 75 column equilibrated with buffer A. Protein concentration was determined at 280 nm (extinction coefficient = 81650 M^−1 cm^−1). […]
# The TbGK activity was measured using a modified version of a continuous enzyme-coupled spectrophotometric assay developed previously. […] The IC50 value of B6 was calculated as the mean of three independent experiments.
# [1] = system: bloodstream-form T. b. brucei strain Lister 427; test: Growth inhibition (LILIT) of bloodstream-form T. b. brucei; assay type: cell-based; conditions: cultured bloodstream form
# Method: (§1) We used bloodstream and procyclic forms of T. b. brucei strain Lister 427, cell lines 449 [34], constitutively expressing the E. coli tetracycline (Tet) repressor gene via the chromosomally integrated plasmid pHD449 that also confers phleomycin resistance. Bloodstream forms were cultured in HMI-9 medium containing 10% heat-inactivated foetal calf serum (Invitrogen) and 0.18 µg/ml phleomycin (Cayla) at 37°C under water-saturated air with 5% CO2. Procyclic trypanosomes were grown in SDM79 medium supplemented with 15% foetal calf serum and 0.5 µg/ml phleomycin at 28°C under water-saturated air with 5% CO2. The glucose-depleted SDM-80 medium, first employed by Lamour et al., was supplemented with 5 µg/ml hemin, 9% (v/v) dialyzed “glucose free” heat-inactivated foetal calf serum (Sigma) and 1% (v/v) of normal heat-inactivated foetal calf serum (Invitrogen).
# (§2) The anti-trypanosomal activity tests were also performed on T. b. brucei according to the “Long Incubation Low Inoculation Test” (LILIT), [39] using cultured bloodstream and procyclic forms of T. b. brucei strain Lister 427, cell line 449 [34].
# [2] = system: procyclic T. b. brucei strain Lister 427; test: Growth inhibition (LILIT) of procyclic T. b. brucei with or without glucose; assay type: cell-based
# Method: as §1, §2
# Tests of growth inhibition by B6 were performed on procyclic trypanosomes cultured in medium containing glucose (SDM79 medium), resulting in glycolytic activity for the cells' main energy supply, or without glucose (SDM80 medium), where the proline is the main substrate for free energy production through mitochondrial metabolism. Under these latter conditions, the glycosomal GAPDH would still be needed for gluconeogenesis, to synthesize glucose 6-phosphate for production of glucoconjugates, but the gluconeogenic flux is assumed to be much lower than the glycolytic flux when glucose is present.
# TbGAPDH = TbGAPDH (Trypanosoma brucei brucei, UniProt P22512); test: T. b. brucei glyceraldehyde-3-phosphate dehydrogenase enzyme-coupled spectrophotometric assay; assay type: biochemical; conditions: for IC50: 10 min pre-incubation
# Sequence of TbGAPDH (P22512 whole entry): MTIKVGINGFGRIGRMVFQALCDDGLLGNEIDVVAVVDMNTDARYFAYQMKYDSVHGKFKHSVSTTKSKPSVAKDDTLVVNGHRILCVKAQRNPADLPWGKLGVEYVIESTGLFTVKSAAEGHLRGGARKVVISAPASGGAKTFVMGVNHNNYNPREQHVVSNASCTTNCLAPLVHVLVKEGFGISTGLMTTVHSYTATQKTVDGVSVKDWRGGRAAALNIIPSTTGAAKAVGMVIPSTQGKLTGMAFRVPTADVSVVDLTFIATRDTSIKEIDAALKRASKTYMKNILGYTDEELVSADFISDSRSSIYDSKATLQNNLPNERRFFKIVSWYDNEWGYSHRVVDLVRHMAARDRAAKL
# Method: The kinetics of the TbGAPDH reaction was monitored using a continuous enzyme-coupled spectrophotometric assay, as previously described. In brief, TbGAPDH activity was measured following the NADH oxidation at 340 nm, in a coupled assay with 3-phosphoglycerate kinase and using a Jasco V-550 spectrophotometer.
# All measurements were performed at 25°C in 0.01 M triethanolamine, pH 7.6, 1.7 mM ATP, 1 mM EDTA, 100 mM KCl, 5 mM MgSO4, 1.7 mM NaHCO3, 25 µg 3-phosphoglycerate kinase. The IC50 values were determined in a final volume of 1 ml in the presence of 120 ng TbGAPDH and 5.6 mM 3-phosphoglycerate (3-PGA), while varying the B6 concentration after a pre-incubation of enzyme plus inhibitor for 10 min. The reaction was started by the addition of 0.2 mM NADH. Each point of the curve was measured in triplicates and the value for IC50 was estimated from graphically plotted dose-response curves.
# The type of inhibition was determined with respect to NADH and 3-PGA in consideration of Michaelis-Menten steady-state conditions. To investigate the inhibition mechanism with respect to NADH, TbGAPDH was incubated for 10 min at room temperature with different inhibitor concentrations (0–15 µM) in a total volume of 1 ml. The reaction was initiated by the addition of 5.6 mM 3-PGA and NADH (ranging from 5 µM to 200 µM). The inhibition mechanism with respect to 3-PGA was determined in a similar way. To this end, TbGAPDH was incubated with varying inhibitor concentrations (10 nM–100 µM). The reaction was initiated by the addition of 0.2 mM NADH and 3-PGA (ranging from 50 µM to 5.6 mM). The α and Ki values were obtained from Dixon and secondary plots. The reported values represent the mean of two independent experiments.
# [3] = system: permeabilized T. b. brucei bloodstream-form cells; test: Oxygen consumption in permeabilized bloodstream-form cells (Clark electrode); assay type: cell-based
# Method: Oxygen consumption was monitored in a thermostated vessel at 37°C with a Clark electrode (oxygraph). Measurements in permeabilized bloodstream-form T. brucei were done in buffer 1 (96.9 mM NaCl, 3.1 mM KCl, 5 mM MgCl2, 2 mM Na2HPO4, 90 mM Tris at pH 7.5). Batches of 2×10^7 cells were pelleted, washed in buffer 1 and incubated for 5′ on ice in 1 ml of buffer 1 containing 1 ng digitonin to permeabilize the cells. Subsequently the permeabilized cells were pelleted and washed twice with buffer 1 without digitonin after which the pellet was taken up in 1 ml buffer 1 and transferred to the oxygraph. Substrates and inhibitors were added as described in the text.
# B6 and SHAM were dissolved in DMSO. The DMSO concentration used in these oxygen consumption measurements was less than 0.7%.
# To determine whether B6 could exert its trypanocidal action also through this mechanism, respiration was monitored in permeabilized T. b. brucei bloodstream-form cells in the presence of B6 and/or SHAM (Fig. 7). SHAM is an inhibitor of TAO, which acts as the final electron acceptor in bloodstream form T. b. brucei.
# [4] = system: T. b. brucei bloodstream-form mitochondria; test: ROS (H2O2) production by mitochondrial fraction, H2DCFDA fluorescence; assay type: cell-based; conditions: 10 µM B6, in the presence of G3P
# Method: Bloodstream- and procyclic-form T. b. brucei cells (strain Lister 427, cell line 449) were cultured up to the exponential growth phase and homogenates were obtained by grinding the washed parasite pellets with silicon-carbide abrasive grain (mesh 300) in disruption buffer containing 250 mM sucrose, 25 mM Tris-HCl and l mM EDTA, pH 7.8 (STE buffer). Differential centrifugation was performed as follows: the suspension was taken up in another 3 ml STE buffer and centrifuged at 30 g for 3 min. The supernatant, representing the cell homogenate, was centrifuged at 1,500 g for 10 min giving the nuclear fraction. The post-nuclear supernatant was then centrifuged at 5,000 g for 10 min giving the large-granular (mitochondria-enriched) fraction as pellet. This fraction was resuspended in 300 µl STE buffer.
# The method used to measure H2O2 production in T. b. brucei mitochondria is based on the fluorogenic probe 2′,7′-dichlorodihydrofluorescein diacetate (H2DCFDA) which emits an intense green fluorescence only after deacetylation and subsequent oxidation. ROS production by the mitochondrial fraction of bloodstream form T. b. brucei was measured in a 96-well microtiter plate using a fluorescence plate reader (Victor Wallace multiplate reader).
# In each well, 0.25 mg mitochondrial protein/ml and 5 µM H2DCFDA to a final volume of 0.2 ml with 10 mM Tris-HCl, 50 mM KCl, 1 mM EDTA, pH 7.5 were present. […]
# [5] = system: Trypanosoma brucei rhodesiense; set-up: method as in PMID 18353643; conditions: cited from earlier work
# [6] = system: bloodstream form T. b. brucei G6PDH RNAi cell line; test: Growth inhibition of bloodstream-form T. b. brucei G6PDH RNAi cell line; assay type: cell-based
# Text: To provide support for the notion that the trypanocidal effect of B6 could in part be attributed to the generation of toxic ROS, we made use of an available bloodstream form T. b. brucei cell line in which glucose-6-phosphate dehydrogenase (G6PDH) expression can be knocked down by RNA interference (RNAi). Previously, it has been shown that this cell line grows equally well as wild-type cells under normal (reducing) growth conditions, but it is highly susceptible to ROS when the G6PDH expression is partially knocked down, an effect attributed to decreased NADPH production.
# [7] = system: Trypanosoma brucei rhodesiense; test: T. b. rhodesiense in vitro growth inhibition; assay type: cell-based; conditions: for IC50: Trypanosoma brucei, RHODESIENSE / STIB900, Figure 1, bloodstream form STIB 900 strain, read-out: IC50 against Trypanosoma brucei rhodesiense parasites
# Method: The synthesized compounds were then tested against T. b. rhodesiense parasites as previously reported, and their activities are shown in Figure 1 along with that of B6.
# T. b. rhodesiense in vitro growth inhibition activity of 1–3 (Fig. 1) was assessed using bloodstream form of STIB 900 strain, following the procedure reported in Orhan et al..
# [8] = set-up: method as in earlier work; conditions: cited from earlier work
# Trypanosoma = system: Trypanosoma; set-up: method as in earlier work; conditions: cited from earlier work
compound,measurement,setting,value
"O=C1C=C(Oc2ccccc2)C(=O)c2ccccc21 [B6, 2-phenoxy-1,4-naphthoquinone]",selectivity index,mammalian cell lines,74
same,IC50,TbGK,900 ± 300 nM
same,ED50 bloodstream-form T. b. brucei strain Lister 427,[1],24.8 µM
same,"fold more susceptible, procyclic versus bloodstream-form","[2]; glucose-grown cells, strain Lister 427",100 fold
same,ED50 procyclic trypanosomes,[2]; medium containing glucose (SDM79),0.25 ± 0.09 µM and 0.25 µM
same,ED50 procyclic trypanosomes,"[2]; without glucose (SDM80), proline metabolism",0.67 ± 0.16 µM
same,IC50,"TbGAPDH; then 1:10 dilution of enzyme and inhibitor, read-out: IC50 TbGAPDH after dilution 1:10",9.98 ± 3.53 µM
same,IC50,"TbGAPDH; standard conditions, without dilution, read-out: IC50 TbGAPDH",7.25 ± 1.62 µM
same,Ki,TbGAPDH; variation of 3-PGA,5 µM and 4.99 µM
same,Ki,TbGAPDH; variation of NADH,3.6 µM
same,α value,TbGAPDH; with respect to 3-PGA,0.4
same,α value,TbGAPDH; with respect to NADH,0.6
same,type of inhibition of TbGAPDH,"TbGAPDH; with respect to NADH and 3-PGA, double reciprocal plots",non-competitive inhibitor (mixed type)
same,oxygen consumption rate,"[3]; cells respiring on 10 mM G3P, absence and presence of SHAM",the oxygen consumption rate increased
same,ROS production,[4],able to generate radicals in a significant way; also recorded: considerable production of ROS
same,IC50,"[5]; Figure 1, lead B6, read-out: IC50 against Trypanosoma brucei rhodesiense parasites",80 nM
same,ED50 against Trypanosoma brucei rhodesiense,[5]; in vitro cultured parasites,80 nM
same,ED50 induced RNAi cell line,[6]; G6PDH expression knocked down by RNAi,0.25 µM
same,ED50 non-induced RNAi cell line,[6]; non-induced,10.8 µM
"Nc1ccc(OC2=CC(=O)c3ccccc3C2=O)cc1 [Compound 1, 2-(4-amino-phenoxy)-[1,4]naphthoquinone]",IC50,[7],570 nM
same,times less active than B6,[7]; anti-T. b. rhodesiense activity relative to B6,7 times
"O=C1C(Oc2ccccc2)=CC(=O)c2c(O)cccc21 [Compound 2, 5-hydroxy-2-phenoxy-[1,4]naphthoquinone]",IC50,[7],4400 nM
"O=C1C=C(Oc2ccccc2)C(=O)c2c(O)cccc21 [Compound 3, 8-hydroxy-2-phenoxy-[1,4]naphthoquinone]",IC50,[7],850 nM
"O=C(NO)c1ccccc1O [SHAM, salicylhydroxamic acid, reference compound]",respiration,"[3]; 2 mM SHAM, 10 mM G3P as electron donor",inhibited respiration completely
CC(C)=CCC1=C(O)C(=O)c2ccccc2C1=O [lapachol],toxic effects in humans,[8],no serious toxic effects in humans
same,anti-trypanosomal profile,Trypanosoma,marked anti-trypanosomal profile
